Results taken from US10745352B2, “Dual function molecules for histone deacetylase inhibition and ataxia telangiectasia mutated activation and methods of use thereof” (Shuttle Pharmaceuticals, Inc., priority 2015, dated 2020).
pIC50: −log10 of the molar value.

Experiments:
[1] = system: breast cancer cells (MCF7 cells); experiment: MTT cytotoxicity assay, breast cancer cells; type: cell-based; settings: Homo sapiens, cell line not named in the sentence (FIG. 9: MCF7 and 184A1)
Procedure: (§1) Certain compounds of the invention were tested in both an MTT cytotoxicity assay and clonogenic cytotoxicity assay against breast cancer cells (MCF7 cells) and normal breast tissue cells (184A1 cells) to determine the cytotoxic effect of such cells as a function of concentration.
(§2) Specifically, the compounds tested included: N-(6-(hydroxyamino)-6-oxohexyl)-3-methyl-1H-indole-2-carboxamide (SP-1-161); -hydroxy-N^6-(2-(2-methyl-1H-indol-3-yl)ethyl)octanediamide (SP-1-163); (S)—N-(6-(hydroxyamino)-6-oxohexyl)-1-tosylindoline-2-carboxamide (SP-1-169); and (S)-1-((5-(dimethylamino)naphthalene-1-yl)sulfonyl)-N-(6-(hydroxyamino)-6-oxoheyl)indoline-carboxamide (SP-1-171).

[2] = system: healthy breast epithelial cells (184A1 cells); experiment: Radiation clonogenic survival, normal breast epithelial cells; type: cell-based; settings: compound at IC50 concentration for 24 h, then gamma radiation; compared with DIM
Procedure: (§3) N-(6-(hydroxyamino)-6-oxohexyl)-3-methyl-1H-indole-2-carboxamide (SP-1-161) was tested against DIM in a radiation clonogenic survival study with healthy breast epithelial cells (184A1 cells) (FIG. 11A) and breast cancer cells (MCF7 cells) (FIG. 11B). After treatment with the compounds of the invention for 24 hours, the cells were exposed to graded doses of gamma radiation.
(§4) Logarithmically growing cells were seeded into T-25 flasks at various densities to yield approximately 50-100 colonies/flask. After incubation for 24 h at 37° C., cells were treated or not with the compound at the IC50 concentration for 24 h followed by sham or irradiation at room temperature using a Mark-30 irradiator with a 137-Cs source at a fixed dose rate of 2.27 Gy/min. After 10-14 days, cells were fixed and stained with crystal violet, and colonies of more than 50 cells were counted. The surviving fractions of the treated cells were normalized to the plating efficiencies of untreated controls. Radiation survival curves were fitted by computer to the single-hit, multitarget and the linear-quadratic models.
(§5) The radiation sensitivity of cells is defined by the terminal slope of the radiation survival curve, which is referred to as D0. The steeper the slope, the smaller is the value of D0, and thus the more radiation sensitive the respective cells. […]

[3] = system: breast cancer cells (MCF7 cells); experiment: Clonogenic cytotoxicity assay, breast cancer cells; type: cell-based; settings: Homo sapiens, cell line not named in the sentence (FIG. 9: MCF7 and 184A1)
Procedure: as §1, §2

[4] = system: breast cancer cells (MCF7 cells); experiment: Radiation clonogenic survival, breast cancer cells; type: cell-based; settings: compound at IC50 concentration for 24 h, then gamma radiation; compared with DIM
Procedure: as §3, §4, §5

[5] = system: ATM; experiment: ATM activation: phospho-ATM (S1981) ELISA on the nuclear fraction of MCF7 cells; type: cell-based, Human; settings: 1 μM, time course of 6 hours
Procedure: Several assays were utilized to determine the ability of the compounds of the invention to activate ATM over a period of time. […] The fold change in phospho-ATM was measured over a period of time. Accordingly, the increase in phospho-ATM indicates activation of ATM by the compounds of the invention.
In certain examples, the activity of the compounds of the invention was compared to additional modulators of ATM, such as […] (a specific ATM inhibitor); dimethylsulfoxide (DMSO) (a solvent); 3,3′-diindolylmethane (DIM) (an ATM activator); and irradiation (irradiation may result in the generation of phospho-ATM due to DNA damage). DIM was not used as a comparative compound in Example 5.
Materials: MCF7 Cells; Complete RPMI media: RPMI, 10% Fetal Bovine Serum (FBS), 5% L-glutamine, 5% Pen/Strep; R&D Systems Human P-ATM (S1981) DuoSet IC ELISA Assay Kit; Plate sealers; Normal mouse serum (heat inactivated 56 C for 30 min); 96-well ELISA microtiter plate; 450 nm Plate Reader; 60 mm dishes; Disposable pipettes; Pipet-aid; Pipette tips; Micro-pipetter; Cell scraper; Distilled water; Pierce NE-PER Nuclear and Cytoplasmic Extraction Reagent; Pierce Protease and Phosphotase Inhibitor Mini Tablets; KU-55933; DIM (not used in Example 5); Dimethyl sulfoxide (DMSO); Phosphate buffered saline (PBS); and Sterile micro-tubes and conical tubes; Hemocytometer; Microscope; Micro-centrifuge.
MCF7 Cells were grown in Complete RPMI media and 10^6 cells were seeded into 60 mm dishes. Dishes were then divided into duplicate treatments the following day. Control samples were treated with 3 ml RPMI media for 1 hr. Vehicle samples were treated with 3 ml RPMI media plus 0.1% DMSO for 1 hr. Negative control samples were treated with 10 μM KU-55933 in 3 ml RPMI media plus 0.1% DMSO for 1 Hr. Positive control samples were treated with 0.5 μM DIM in 3 ml RPMI media plus 0.1% DMSO for 30 min. Test Samples were treated with 1 μM of the test compounds (e.g. N-(6-(hydroxyamino)-6-oxohexyl)-1H-indole-2-carboxamide in Example 5) in 3 ml RPMI media plus 0.1% DMSO for 30 min; 1 hr; 2 hrs; 4 hrs; and 6 hrs. At their designated time, samples were harvested on ice using a cell scraper and two washes of 1 ml PBS and kept as a cell pellet on dry ice until all were collected. After all samples were collected they were thawed on ice and separated into cytosolic and nuclear fractions using the Pierce NE-PER Nuclear and Cytoplasmic Extraction Reagent kit with added Pierce protease and phosphotase inhibitor tablet.
After recovery of the separate fractions, the process further included washing cells by suspending the cell pellet with PBS. 1-10×10^6 cells were transferred to a 1.5 mL microcentrifuge tube and a pellet was formed by centrifugation at 500×g for 2-3 minutes. […]

## Cc1c(C(=O)NCCCCCC(=O)NO)[nH]c2ccccc12 [SP-1-161, N-(6-(hydroxyamino)-6-oxohexyl)-3-methyl-1H-indole-2-carboxamide]
[1]
  pIC50: 6.38
[2]
  protection of normal cells from radiation (184A1): protected normal cells from radiation-mediated killing
[3]
  pIC50: 6.56
[4]
  radiation sensitizing activity in breast cancer cells (MCF7): demonstrated radiation sensitizing activity and further outperformed DIM
[5]
  ATM activation (level of ATM phosphorylation, phospho-ATM): exemplary ATM activation activity
